According to patent publication US8598344B2, “CDKI pathway inhibitors and uses thereof” (Senex Biotechnology, priority 2009, dated 2013):

How the values were obtained:
Assay in all cases: KinomeScan competition binding assay
Conditions in all cases: 10 μM compound
CIT = target: T1, CIT (Homo sapiens, UniProt O14578)
T1 construct: purchased KinomeScan, a division of Ambit Biosciences
From the text: (§1) This similarity led us to test SNX14 for the ability to inhibit 285 kinases, using the services of KinaseProfiler of Millipore Corporation (285 kinases). […] The KINOMEscan assay has been described in detail in Fabian et al., Nat. Biotechnol. 23: 329 (2005) and Karaman et al., Nat. Biotechnol. 26: 127 (2008).
(§2) The KinomeScan assay is based on a competition binding assay that quantitatively measures the ability of a compound to compete with an immobilized, ATP site directed ligand. The assay is performed by combining three components: DNA-tagged kinase; immobilized ligand; and a test compound. The ability of the test compound to compete with the immobilized ligand is measured via quantitative PCR of the DNA tag. […] The CDKs tested by Millipore for inhibition with SNX14 included CDK1, CDK2, CDK3, CDK5, CDK7 and CDK9; none of these were inhibited to less than 49 percent of control (POC) activity. The CDKs tested by KinomeScan for the effect of Compound 1 included CDK2, CDK3, CDK4, CDK5, CDK7, CDK8, CDK9 and CDK19; aside from CDK8 and CDK19, the strongest inhibited CDK was CDK7 (33% POC binding). To determine the inhibition of which kinases correlates with the biological activity of SNX2-class compounds, we tested eight additional compounds of the SNX2 family, which gave different IC50 values in the cellular assays, for the ability to affect 24 kinases that were most susceptible to compound 1, through the services of KinomeScan. […] We have also determined the binding constant (Kd) for SNX14, compound 1, compound 20, compound 26, compound 43 and compound 14 in kinase assays for CDK8 and CDK19 (Table 1).

HIPK2 = target: T2, HIPK2 (Homo sapiens, UniProt Q9H2X6)
T2 construct: purchased KinomeScan, a division of Ambit Biosciences
T2 sequence (Q9H2X6 whole entry): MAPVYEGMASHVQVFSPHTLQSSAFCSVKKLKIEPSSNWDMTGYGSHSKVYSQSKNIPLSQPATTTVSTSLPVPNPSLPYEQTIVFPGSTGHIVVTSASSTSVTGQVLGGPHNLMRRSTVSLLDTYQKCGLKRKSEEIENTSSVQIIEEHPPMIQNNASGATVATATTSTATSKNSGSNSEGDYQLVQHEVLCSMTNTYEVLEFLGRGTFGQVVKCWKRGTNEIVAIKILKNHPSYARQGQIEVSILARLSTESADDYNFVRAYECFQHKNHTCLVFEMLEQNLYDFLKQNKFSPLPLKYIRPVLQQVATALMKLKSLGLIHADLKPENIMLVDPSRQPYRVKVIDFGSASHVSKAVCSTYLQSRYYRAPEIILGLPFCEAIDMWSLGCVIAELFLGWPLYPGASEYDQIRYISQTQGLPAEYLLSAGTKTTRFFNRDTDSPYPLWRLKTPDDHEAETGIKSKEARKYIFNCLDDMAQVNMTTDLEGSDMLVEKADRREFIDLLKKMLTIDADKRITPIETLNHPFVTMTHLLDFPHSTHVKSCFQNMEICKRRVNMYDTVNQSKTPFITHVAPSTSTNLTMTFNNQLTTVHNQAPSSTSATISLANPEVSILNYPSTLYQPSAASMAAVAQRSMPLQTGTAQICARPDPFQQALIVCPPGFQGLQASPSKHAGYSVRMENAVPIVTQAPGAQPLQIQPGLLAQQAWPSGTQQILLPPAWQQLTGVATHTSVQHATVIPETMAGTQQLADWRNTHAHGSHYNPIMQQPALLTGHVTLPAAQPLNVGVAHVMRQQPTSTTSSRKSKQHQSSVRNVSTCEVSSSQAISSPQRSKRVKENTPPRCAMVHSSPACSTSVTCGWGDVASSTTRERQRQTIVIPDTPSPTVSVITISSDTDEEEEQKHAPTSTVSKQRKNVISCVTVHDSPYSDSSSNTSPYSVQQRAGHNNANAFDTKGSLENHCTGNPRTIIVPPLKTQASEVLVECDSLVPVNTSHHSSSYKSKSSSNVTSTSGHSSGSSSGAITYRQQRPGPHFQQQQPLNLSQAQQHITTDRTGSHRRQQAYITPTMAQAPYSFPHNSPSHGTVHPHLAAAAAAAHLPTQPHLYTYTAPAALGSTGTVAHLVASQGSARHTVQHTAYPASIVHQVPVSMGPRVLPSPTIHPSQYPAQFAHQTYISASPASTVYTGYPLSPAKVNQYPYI
From the text: as §1, §2

MEK3 = target: T3, MEK3 (Homo sapiens, UniProt P46734)
T3 construct: purchased KinomeScan, a division of Ambit Biosciences
T3 sequence (P46734 1-347): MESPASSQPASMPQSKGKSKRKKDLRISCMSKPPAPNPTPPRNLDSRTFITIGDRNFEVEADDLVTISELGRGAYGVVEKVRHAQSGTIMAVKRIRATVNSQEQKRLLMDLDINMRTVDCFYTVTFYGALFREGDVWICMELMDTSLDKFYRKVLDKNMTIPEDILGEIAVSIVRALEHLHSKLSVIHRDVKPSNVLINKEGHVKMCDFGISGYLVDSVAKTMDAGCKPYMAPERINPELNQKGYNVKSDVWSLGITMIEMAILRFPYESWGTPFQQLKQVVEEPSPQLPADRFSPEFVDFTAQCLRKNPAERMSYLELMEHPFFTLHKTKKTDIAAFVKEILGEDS
From the text: as §1, §2

MEK5 = target: T4, MEK5 (Homo sapiens, UniProt Q13163)
T4 construct: purchased KinomeScan, a division of Ambit Biosciences
T4 sequence (Q13163 1-448): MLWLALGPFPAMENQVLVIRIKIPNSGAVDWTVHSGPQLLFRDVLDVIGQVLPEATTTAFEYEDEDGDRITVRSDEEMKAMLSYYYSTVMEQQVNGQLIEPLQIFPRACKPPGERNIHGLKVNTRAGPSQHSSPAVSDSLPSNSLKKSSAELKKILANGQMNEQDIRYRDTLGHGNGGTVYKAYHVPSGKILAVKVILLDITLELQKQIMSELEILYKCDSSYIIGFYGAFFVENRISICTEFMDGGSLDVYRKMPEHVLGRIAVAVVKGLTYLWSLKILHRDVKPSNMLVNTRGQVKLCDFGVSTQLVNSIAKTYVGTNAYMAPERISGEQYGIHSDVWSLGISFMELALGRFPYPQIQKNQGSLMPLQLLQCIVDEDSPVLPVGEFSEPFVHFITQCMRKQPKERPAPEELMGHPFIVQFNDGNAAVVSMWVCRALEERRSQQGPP
From the text: as §1, §2

PIP5K2C = target: T5, PIP5K2C (Homo sapiens, UniProt Q8TBX8)
T5 construct: purchased KinomeScan, a division of Ambit Biosciences
T5 sequence (Q8TBX8 1-421): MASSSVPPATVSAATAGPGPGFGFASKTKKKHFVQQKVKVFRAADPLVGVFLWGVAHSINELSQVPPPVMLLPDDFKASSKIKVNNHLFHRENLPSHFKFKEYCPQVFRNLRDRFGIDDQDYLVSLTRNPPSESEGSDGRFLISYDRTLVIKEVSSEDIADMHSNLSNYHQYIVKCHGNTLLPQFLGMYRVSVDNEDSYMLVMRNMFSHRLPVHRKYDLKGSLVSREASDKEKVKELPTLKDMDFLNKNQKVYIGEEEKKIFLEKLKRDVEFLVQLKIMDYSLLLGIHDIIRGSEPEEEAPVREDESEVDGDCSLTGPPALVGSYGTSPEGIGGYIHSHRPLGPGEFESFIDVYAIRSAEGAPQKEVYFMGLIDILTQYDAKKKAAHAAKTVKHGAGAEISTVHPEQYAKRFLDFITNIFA
From the text: as §1, §2

T1 sequence (O14578 whole entry): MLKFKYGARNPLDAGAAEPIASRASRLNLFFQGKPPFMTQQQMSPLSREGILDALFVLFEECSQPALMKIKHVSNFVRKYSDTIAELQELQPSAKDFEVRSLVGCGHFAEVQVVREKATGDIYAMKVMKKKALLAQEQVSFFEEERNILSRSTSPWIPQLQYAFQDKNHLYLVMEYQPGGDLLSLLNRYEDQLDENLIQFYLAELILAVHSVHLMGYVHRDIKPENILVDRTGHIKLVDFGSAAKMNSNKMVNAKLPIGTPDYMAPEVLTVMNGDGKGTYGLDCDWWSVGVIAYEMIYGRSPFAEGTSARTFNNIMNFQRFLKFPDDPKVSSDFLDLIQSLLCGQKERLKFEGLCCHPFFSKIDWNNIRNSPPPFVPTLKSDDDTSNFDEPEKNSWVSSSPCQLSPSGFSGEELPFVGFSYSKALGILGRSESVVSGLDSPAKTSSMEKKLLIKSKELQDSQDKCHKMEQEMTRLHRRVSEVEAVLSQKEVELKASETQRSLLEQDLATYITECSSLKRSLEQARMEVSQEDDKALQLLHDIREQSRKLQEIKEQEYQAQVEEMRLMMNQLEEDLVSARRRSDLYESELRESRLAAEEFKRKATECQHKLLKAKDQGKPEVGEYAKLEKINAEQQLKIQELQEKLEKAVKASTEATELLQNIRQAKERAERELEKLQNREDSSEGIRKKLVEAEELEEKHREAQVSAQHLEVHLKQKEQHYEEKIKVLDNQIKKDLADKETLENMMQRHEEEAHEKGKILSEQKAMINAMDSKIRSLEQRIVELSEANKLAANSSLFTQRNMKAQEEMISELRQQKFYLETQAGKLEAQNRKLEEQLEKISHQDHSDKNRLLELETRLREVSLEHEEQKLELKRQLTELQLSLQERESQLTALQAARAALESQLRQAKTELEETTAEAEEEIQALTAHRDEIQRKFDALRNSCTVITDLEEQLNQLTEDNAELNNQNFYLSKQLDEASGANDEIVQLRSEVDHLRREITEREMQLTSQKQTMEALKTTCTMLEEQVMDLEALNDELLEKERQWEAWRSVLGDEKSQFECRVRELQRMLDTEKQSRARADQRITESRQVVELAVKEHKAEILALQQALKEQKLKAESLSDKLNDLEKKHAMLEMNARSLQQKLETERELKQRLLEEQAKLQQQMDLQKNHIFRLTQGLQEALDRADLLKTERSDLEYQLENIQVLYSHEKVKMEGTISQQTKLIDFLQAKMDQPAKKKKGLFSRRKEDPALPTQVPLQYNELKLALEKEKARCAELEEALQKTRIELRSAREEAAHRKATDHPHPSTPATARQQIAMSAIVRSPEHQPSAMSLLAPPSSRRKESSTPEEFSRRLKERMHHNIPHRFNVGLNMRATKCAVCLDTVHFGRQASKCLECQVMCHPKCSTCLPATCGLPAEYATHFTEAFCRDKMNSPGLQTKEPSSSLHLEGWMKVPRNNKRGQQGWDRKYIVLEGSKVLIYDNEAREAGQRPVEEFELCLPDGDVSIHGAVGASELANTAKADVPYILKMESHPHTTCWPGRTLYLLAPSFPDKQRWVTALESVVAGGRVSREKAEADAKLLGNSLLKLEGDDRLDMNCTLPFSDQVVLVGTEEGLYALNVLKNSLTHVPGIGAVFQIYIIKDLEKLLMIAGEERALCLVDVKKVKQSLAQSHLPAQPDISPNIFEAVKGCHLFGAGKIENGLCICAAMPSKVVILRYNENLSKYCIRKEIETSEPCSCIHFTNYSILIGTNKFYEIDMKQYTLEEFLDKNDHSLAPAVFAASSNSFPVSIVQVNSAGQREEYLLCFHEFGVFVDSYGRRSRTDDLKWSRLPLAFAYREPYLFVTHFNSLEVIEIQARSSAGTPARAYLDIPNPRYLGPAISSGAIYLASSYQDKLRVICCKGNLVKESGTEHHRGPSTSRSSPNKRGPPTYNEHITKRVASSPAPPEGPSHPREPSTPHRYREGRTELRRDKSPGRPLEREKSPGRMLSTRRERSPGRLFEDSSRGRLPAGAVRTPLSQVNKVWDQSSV

Row | SMILES | POC ligand binding, CIT (CIT) [POC] | POC ligand binding, HIPK2 (HIPK2) [POC] | POC ligand binding, MEK3 (MEK3) [POC] | POC ligand binding, MEK5 (MEK5) [POC] | POC ligand binding, PIP5K2C (PIP5K2C) [POC] | POC ligand binding, CIT (CIT; 10 µM) [POC] | POC ligand binding, HIPK2 (HIPK2; 10 µM) [POC] | POC ligand binding, MEK3 (MEK3; 10 µM) [POC] | POC ligand binding, MEK5 (MEK5; 10 µM) [POC] | POC ligand binding, PIP5K2C (PIP5K2C; 10 µM) [POC]
1 | COc1ccc2ncnc(NCCc3ccccc3)c2c1 [compound 44] | 18 | 62 | 72 | 59 | 59 |  |  |  |  | 
2 | N#Cc1ccc2ncnc(NCc3ccc(Cl)cc3)c2c1 [compound 20] | 7.9 | 28 | 76 | 62 | 2.4 |  |  |  |  | 
3 | N#Cc1ccc2ncnc(NCCc3ccccc3)c2c1 [compound 1] | 15 | 18 | 18 | 18 | 1.2 |  |  |  |  | 
4 | CCCNc1ncnc2ccc(N3CCOCC3)cc12 [compound 46] | 86 | 30 | 100 | 17 | 61 |  |  |  |  | 
5 | N#Cc1ccc2ncnc(NCc3ccc4ccccc4c3)c2c1 [compound 43] |  |  |  |  |  | 14 | 30 | 64 | 41 | 4
6 | CC(C)CNc1ncnc2ccc(C(F)(F)F)cc12 [compound 45] | 50 | 20 | 71 | 46 | 60 |  |  |  |  | 
7 | N#Cc1ccc2ncnc(NCc3ccc4ccccc4c3)c2c1 [compound 14] |  |  |  |  |  | 9.8 | 34 | 29 | 13 | 16
8 | N#Cc1ccc2ncnc(NCCc3ccc4ccccc4c3)c2c1 [compound 26] | 40 | 73 | 78 | 61 | 39 |  |  |  |  | 
